Laboratory results: patent US20160207906A1, “NOVEL 2,6-DIAMINOPYRIMIDINE DERIVATIVE” (CARNA BIOSCIENCES, INC., priority 2013, published 2016)
pIC50: −log10 of the molar value. “Also recorded” adds a separate entry of the source.

Tests used:
Dephosphorylated BTK = target: T1, Dephosphorylated BTK (Homo sapiens, UniProt Q06187); assay: BTK activity inhibition test (mobility shift assay, dephosphorylated BTK); type: biochemical; conditions: 200 μM ATP in substrate mixture, 1 hour at room temperature
T1 construct: purchased Carna Biosciences, Inc
T1 sequence (Q06187 whole entry): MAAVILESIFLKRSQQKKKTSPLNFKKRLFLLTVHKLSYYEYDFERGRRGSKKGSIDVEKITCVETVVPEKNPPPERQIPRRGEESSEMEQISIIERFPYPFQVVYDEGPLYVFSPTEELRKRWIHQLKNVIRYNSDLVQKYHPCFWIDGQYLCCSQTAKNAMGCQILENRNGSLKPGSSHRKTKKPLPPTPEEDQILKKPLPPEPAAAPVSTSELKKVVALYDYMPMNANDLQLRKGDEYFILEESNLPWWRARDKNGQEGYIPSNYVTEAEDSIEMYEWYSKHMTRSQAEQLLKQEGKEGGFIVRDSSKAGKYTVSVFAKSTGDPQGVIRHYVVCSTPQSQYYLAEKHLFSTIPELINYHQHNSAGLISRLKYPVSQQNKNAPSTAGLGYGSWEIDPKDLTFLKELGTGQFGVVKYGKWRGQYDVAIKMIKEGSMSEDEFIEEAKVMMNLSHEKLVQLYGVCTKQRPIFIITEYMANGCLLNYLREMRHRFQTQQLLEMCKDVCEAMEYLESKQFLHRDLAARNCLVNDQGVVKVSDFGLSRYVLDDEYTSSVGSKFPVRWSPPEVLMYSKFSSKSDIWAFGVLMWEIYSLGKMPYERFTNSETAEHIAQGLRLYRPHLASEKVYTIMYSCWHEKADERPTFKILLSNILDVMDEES
Protocol: Dephosphorylated BTK was obtained by adding A protein phosphatase (manufactured by New England BioLabs Inc., Code No. P0753S) and MnCl2 at 10 U/μg and 2 mM, respectively to biotinylated BTK protein BTN-BTK (manufactured by Carna Biosciences, Inc.) enzyme solution, reacting the mixture at 4° C. overnight, and removing of A protein phosphatase by anti DYKDDDDK-tag antibody agarose gel chromatography, followed by buffer exchange using a 10DG Desalting Column.
The kinase activity was measured using QuickScout Screening Assist (trade mark) MSA (commercially available kit manufactured by Carna Biosciences, Inc.) by mobility shift assay (MSA) method. The substrate of the kinase reaction was an FITC-labeled SRCtide peptide included in the kit. An assay buffer [20 mM HEPES, 0.01% Triton X-100 (Trade mark), 2 mM dithiothreitol, pH7.5] was used and adjusted at 4 μM substrate, 20 mM MgCl2 and 200 μM ATP to obtain a substrate mixture solution. The enzyme solution was also prepared by diluting the dephosphorylated BTK to 0.6 nM using the assay buffer. The 10 mM solution of the test compound in DMSO was further diluted with DMSO to 10 levels of the concentration (0.00003 mM, 0.0001 mM, 0.0003 mM, 0.001 mM, 0.003 mM, 0.01 mM, 0.03 mM, 0.1 mM, 0.3 mM, 1 mM), each of which was subjected to a 25-fold dilution with the assay buffer to obtain the drug solutions (4% DMSO solutions), 5 μL of the drug solution or a control solution (4% DMSO-assay buffer), 5 μL of the substrate mixture solution, and 10 μL of the enzyme solution were mixed in the wells of a polypropylene 384-well plate and allowed to react at room temperature for 1 hour, and then quenched by adding 60 μL of the termination buffer included in the kit. Subsequently, the quantities of the substrates (S) and the phosphorylated substrate (P) in the reaction solution were measured using LabChip EZ Reader II system (manufactured by Caliper Life Sciences) according to the protocol of the assay kit.
The heights of the peaks of the isolated substrate and the phosphorylated substrate were represented as S and P, respectively, and a blank which contained the assay buffer instead of the enzyme solution was also measured.
The inhibition rate (%) of the test compound was calculated according to the following equation.
Inhibition rate (%)=(1−(C−A)/(B−A))×100
wherein, A, B and C represent P/(P+S) of the blank well, P/(P+S) of the control well and P/(P+S) of the compound-containing well, respectively.
The IC50 value was calculated via a regression analysis of the inhibition rate (%) and the test compound concentration (logarithmic value).

[1] = tested on: anti-IgM antibody BCR stimulation-induced intracellular calcium influx in Ramos cells; assay: Inhibition test on the change of Ramos intracellular calcium ion; type: cell-based; conditions: Fluo-8NW, anti-IgM antibody 2.0 μg/mL
Protocol: The intracellular BTK inhibition by the compounds of the present invention was verified by measuring the effects of the compounds of the present invention on “anti-IgM antibody BCR stimulation-induced intracellular calcium influx”.
One day before measurement, the Ramos cells were cultured as being suspended again at a cell density of 1.0×10^6 cells/mL in a fresh growth medium (growth medium as used in Test Example 2), and the cells were recovered next day by centrifugation and washed with RPMI-1640 medium supplemented with 5% penicillin-streptomycin (Nacalai Tesque, Inc.) (Medium 1). These cells were suspended again at a cell density of 2.0×10^6 cells/mL in RPMI-1640 medium supplemented with 1% Ultra Low IgG FBS (GIBCO, #16250) and 5% penicillin-streptomycin (Nacalai Tesque, Inc.) (Medium 2), and thereafter each 100 μL of the cell suspension was added to each well of a Poly Lysine-coated microplate (BD BioCoat™, #356692), centrifuged (700 rpm, 3 minutes) and then incubated for 1 hour in a 5% CO2 incubator at 37° C. […]
The Ramos intracellular calcium ion concentration was measured as a fluorescent intensity of the calcium indicator Fluo-8NW using a microplate reader (SynergyH1) (Ex/Em=490/525 nm). […]

| Compound | pIC50 (Dephosphorylated BTK) | inhibition of anti-IgM antibody BCR stimulation-induced intracellular calcium ion variation (FIG. 1) [1] |
| --- | --- | --- |
| Cn1cc(Nc2nc(N)cc(-c3cccc(-n4ccc5cc(C6CC6)cc(F)c5c4=O)c3CO)n2)cc1C#N [Example 5, 4-({4-Amino-6-[3-(6-cyclo-propyl-8-fluoro-1-oxoiso-quinolin-2(1H)-yl)-2-(hydroxymethyl)phenyl]pyrimidin-2-yl}amino)-1-methyl-1H-pyrrole-2-carbonitrile] | 8.77 | – |
| N#Cc1cc(Nc2nc(N)cc(-c3cccc(-n4ccc5cc(C6CC6)cc(F)c5c4=O)c3CO)n2)cn1C1CC1 [Example 10, 4-({4-Amino-6-[3-(6-cyclo-propyl-8-fluoro-1-oxoiso-quinolin-2(1H)-yl)-2-(hydroxymethyl)phenyl]pyrimidin-2-yl}amino)-1-cyclopropyl-1H-pyrrole-2-carbonitrile] | 8.68 | – |
| CC(=O)c1cc(Nc2nc(N)cc(-c3cccc(-n4ccc5cc(C6CC6)cc(F)c5c4=O)c3CO)n2)cn1C [Example 17, 2-(3-{2-[(5-Acetyl-1-methyl-1H-pyrrol-3-yl)amino]-6-aminopyrimidin-4-yl}-2-(hydroxymethyl)phenyl)-6-cyclopropyl-8-fluoroiso-quinolin-1(2H)-one] | 9.10 | – |
| Cn1cc(Nc2nc(N)cc(-c3cccc(-n4ccc5cc(C6CC6)cc(F)c5c4=O)c3CO)n2)cn1 [Example 2, 2-(3-{6-Amino-2-[ (1-methyl-1H-pyrazol-4-yl)amino]pyrimidin-4-yl}-2-(hydroxymethyl)phenyl)-6-cyclopropyl-8-fluoroisoquinolin-1 (2H)-one] | 8.19 | in a concentration-dependent manner from a low concentration; also recorded: inhibit the flux of calcium into the cells |
| Cn1cc(Nc2nc(N)cc(-c3cccc(-n4ccc5cc(C(C)(C)C)cc(F)c5c4=O)c3CO)n2)cn1 [Example 7, 2-(3-{6-Amino-2-[(1-methyl-1H-pyrazol-4-yl)amino]pyrimidin-4-yl}-2-(hydroxymethyl)phenyl)-6-(tert-butyl)-8-fluoro-isoquinolin-1(2H)-one] | 9.52 | – |
| Cn1cc(Nc2nc(N)cc(-c3cccc(-n4ncc5cc(C6CC6)cc(F)c5c4=O)c3CO)n2)cc1C#N [Example 24, 4-({4-Amino-6-[3-(6-cyclo-propyl-8-fluoro-1-oxo-phthalazin-2(1H)-yl)-2-(hydroxymethyl)phenyl]pyrimidin-2-yl}amino)-1-methyl-1H-pyrrole-2-carbonitrile] | 9.40 | – |
| Nc1cc(-c2cccc(-n3ccc4cc(C5CC5)cc(F)c4c3=O)c2CO)nc(Nc2cnn(C3CC3)c2)n1 [Example 9, 2-(3-{6-Amino-2-[(1-cyclopropyl-1H-pyrazol-4-yl)amino]pyrimidin-4-yl}-2-(hydroxymethyl)phenyl)-6-cyclopropyl-8-fluoroisoquinolin-1(2H)-one] | 9.52 | – |
| Nc1cc(-c2cccc(-n3ccc4cc(C5CC5)cc(F)c4c3=O)c2CO)nc(Nc2ccc(N3CCOCC3)cc2)n1 [Example 1, 2-(3-{6-Amino-2-[(4-morpholinophenyl)amino]pyrimidin-4-yl}-2-(hydroxymethyl)phenyl)-6-cyclopropyl-8-fluoroisoquinolin-1 (2H)-one] | 8.68 | in a concentration-dependent manner from a low concentration; also recorded: inhibit the flux of calcium into the cells |
| Nc1cc(-c2cccc(-n3ccc4cc(C5CC5)cc(F)c4c3=O)c2CO)nc(Nc2cnn(CC3CC3)c2)n1 [Example 8, 2-[3-(6-Amino-2-{[1-(cyclopropylmethyl)-1H-pyrazol-4-yl]amino}pyrimidin-4-yl)-2-(hydroxymethyl)phenyl]-6-cyclopropyl-8-fluoroisoquinolin-1(2H)-one] | 9.52 | – |
| Cn1cc(Nc2nc(N)cc(-c3cccc(-n4ccc5cc(C6(C)CC6)cc(F)c5c4=O)c3CO)n2)cn1 [Example 25, 2-(3-{6-Amino-2-[(1-methyl-1H-pyrazol-4-yl)amino]pyrimidin-4-yl}-2-(hydroxy-methyl)phenyl)-8-fluoro-6-(1-methylcyclopropyl) isoquinolin-1(2H)-one] | 9.70 | – |

Continued by rising pIC50 (Dephosphorylated BTK), values first:

| pIC50 (Dephosphorylated BTK) | Compound | inhibition of anti-IgM antibody BCR stimulation-induced intracellular calcium ion variation (FIG. 1) [1] |
| --- | --- | --- |
| 9.10 | Cn1cc(Nc2nc(N)cc(-c3ccnc(-n4ccc5cc(C6CC6)cc(F)c5c4=O)c3CO)n2)cn1 [Example 22, 2-(4-{6-Amino-2-[(1-methyl-1H-pyrazol-4-yl)amino]pyrimidin-4-yl}-3-(hydroxy-methyl)pyridin-2-yl)-6-cyclo-propyl-8-fluoroisoquinolin-1(2H)-one] | – |
| 9.22 | Cn1cc(Nc2nc(N)cc(-c3cccc(-n4ncc5cc(C6CC6)cc(F)c5c4=O)c3CO)n2)cn1 [Example 20, 2-(3-{6-Amino-2-[(1-methyl-1H-pyrazol-4-yl)amino]pyrimidin-4-yl}-2-(hydroxy-methyl)phenyl)-6-cyclopropyl-8-fluorophthalazin-1(2H)-one] | – |
| 9.22 | Nc1cc(-c2cccc(-n3ccc4cc(C5CC5)cc(F)c4c3=O)c2CO)nc(Nc2cn[nH]c2)n1 [Example 18, 2-(3-{2-[(1H-Pyrazol-4-yl)amino]-6-aminopyrimidin-4-yl}-2-(hydroxymethyl)phenyl)-6-cyclopropyl-8-fluoroiso-quinolin-1(2H)-one] | – |
| 9.40 | CN1CCN(c2ccc(Nc3nc(N)cc(-c4cccc(-n5ccc6cc(C7CC7)cc(F)c6c5=O)c4CO)n3)cc2)CC1 [Example 15, 2-[3-(6-Amino-2-{[4-(4-methylpiperazin-1-yl)phenyl]amino}pyrimidin-4-yl)-2-(hydroxymethyl)phenyl]-6-cyclopropyl-8-fluoroisoquinolin-1(2H)-one] | – |
| 9.40 | Nc1cc(-c2cccc(-n3ncc4cc(C5CC5)cc(F)c4c3=O)c2CO)nc(Nc2cnn(C3CC3)c2)n1 [Example 21, 2-(3-{6-Amino-2-[(1-cyclo-propyl-1H-pyrazol-4-yl)amino]pyrimidin-4-yl}-2-(hydroxymethyl)phenyl)-6-cyclopropyl-8-fluoro-phthalazin-1(2H)-one] | – |
